Measurements published in article PMC10408569, “Recruitment of hexahydroquinoline as anticancer scaffold targeting inhibition of wild and mutants EGFR (EGFR^WT, EGFR^T790M, and EGFR^L858R)” (Journal of Enzyme Inhibition and Medicinal Chemistry, 2023).

Columns and labels:
CCRF-CEM = assay: NCI-60 anticancer screening (SRB); assay type: cell-based; details: Homo sapiens; for inhibition at 10 µM: leukemia, one dose 10 μM, read-out: Growth Inhibition Percentage (GI %)
EKVX = assay: NCI-60 anticancer screening (SRB); assay type: cell-based; details: Homo sapiens; for inhibition at 10 µM: NSC lung cancer, one dose 10 μM, read-out: Growth Inhibition Percentage (GI %)
HOP-92 = assay: NCI-60 anticancer screening (SRB); assay type: cell-based; details: Homo sapiens; for inhibition at 10 µM: HOP-92, NSC lung cancer, one dose 10 μM, read-out: Growth Inhibition Percentage (GI %)
NCI-H460 = assay: NCI-60 anticancer screening (SRB); assay type: cell-based; details: Homo sapiens; for inhibition at 10 µM: NCI-H460, NSC lung cancer, one dose 10 μM, read-out: Growth Inhibition Percentage (GI %)
COLO 205 = assay: NCI-60 anticancer screening (SRB); assay type: cell-based; details: Homo sapiens; for inhibition at 10 µM: COLO 205, colon cancer, one dose 10 μM, read-out: Growth Inhibition Percentage (GI %)
HCT-116 = assay: NCI-60 anticancer screening (SRB); assay type: cell-based; details: Homo sapiens; for inhibition at 10 µM: HCT-116, colon cancer, one dose 10 μM, read-out: Growth Inhibition Percentage (GI %)
HT29 = assay: NCI-60 anticancer screening (SRB); assay type: cell-based; details: Homo sapiens, HT-29; for inhibition at 10 µM: HT29, colon cancer, one dose 10 μM, read-out: Growth Inhibition Percentage (GI %)
SF-295 = assay: NCI-60 anticancer screening (SRB); assay type: cell-based; details: Homo sapiens; for inhibition at 10 µM: SF-295, CNS cancer, one dose 10 μM, read-out: Growth Inhibition Percentage (GI %)
SF-539 = assay: NCI-60 anticancer screening (SRB); assay type: cell-based; details: Homo sapiens; for inhibition at 10 µM: SF-539, CNS cancer, one dose 10 μM, read-out: Growth Inhibition Percentage (GI %)
U251 = assay: NCI-60 anticancer screening (SRB); assay type: cell-based; details: Homo sapiens, U-251; for inhibition at 10 µM: U251, CNS cancer, one dose 10 μM, read-out: Growth Inhibition Percentage (GI %)
MALME-3M = assay: NCI-60 anticancer screening (SRB); assay type: cell-based; details: Homo sapiens; for inhibition at 10 µM: melanoma, one dose 10 μM, read-out: Growth Inhibition Percentage (GI %)
M14 = assay: NCI-60 anticancer screening (SRB); assay type: cell-based; details: Homo sapiens; for inhibition at 10 µM: M14, melanoma, one dose 10 μM, read-out: Growth Inhibition Percentage (GI %)
SK-MEL-28 = assay: NCI-60 anticancer screening (SRB); assay type: cell-based; details: Homo sapiens; for inhibition at 10 µM: SK-MEL-28, melanoma, one dose 10 μM, read-out: Growth Inhibition Percentage (GI %)
UACC-62 = assay: NCI-60 anticancer screening (SRB); assay type: cell-based; details: Homo sapiens; for inhibition at 10 µM: UACC-62, melanoma, one dose 10 μM, read-out: Growth Inhibition Percentage (GI %)
IGROV1 = assay: NCI-60 anticancer screening (SRB); assay type: cell-based; details: Homo sapiens, IGROV-1; for inhibition at 10 µM: IGROV1, ovarian cancer, one dose 10 μM, read-out: Growth Inhibition Percentage (GI %)
NCI/ADR-RES = assay: NCI-60 anticancer screening (SRB); assay type: cell-based; details: Homo sapiens, ovarian cancer, one dose 10 μM, read-out: Growth Inhibition Percentage (GI %)
786-0 = assay: NCI-60 anticancer screening (SRB); assay type: cell-based; details: Homo sapiens; for inhibition at 10 µM: 786-0, renal cancer, one dose 10 μM, read-out: Growth Inhibition Percentage (GI %)
A498 = assay: NCI-60 anticancer screening (SRB); assay type: cell-based; details: Homo sapiens; for inhibition at 10 µM: A498, renal cancer, one dose 10 μM, read-out: Growth Inhibition Percentage (GI %)
CAKI-1 = assay: NCI-60 anticancer screening (SRB); assay type: cell-based; details: Homo sapiens; for inhibition at 10 µM: CAKI-1, renal cancer, one dose 10 μM, read-out: Growth Inhibition Percentage (GI %)
SN 12C = assay: NCI-60 anticancer screening (SRB); assay type: cell-based; details: Homo sapiens, SN12C; for inhibition at 10 µM: SN 12C, renal cancer, one dose 10 μM, read-out: Growth Inhibition Percentage (GI %)
TK-10 = assay: NCI-60 anticancer screening (SRB); assay type: cell-based; details: Homo sapiens; for inhibition at 10 µM: TK-10, renal cancer, one dose 10 μM, read-out: Growth Inhibition Percentage (GI %)
UO-31 = assay: NCI-60 anticancer screening (SRB); assay type: cell-based; details: Homo sapiens; for inhibition at 10 µM: UO-31, renal cancer, one dose 10 μM, read-out: Growth Inhibition Percentage (GI %)
PC-3 = assay: NCI-60 anticancer screening (SRB); assay type: cell-based; details: Homo sapiens; for inhibition at 10 µM: PC-3, prostate cancer, one dose 10 μM, read-out: Growth Inhibition Percentage (GI %)
DU-145 = assay: NCI-60 anticancer screening (SRB); assay type: cell-based; details: Homo sapiens; for inhibition at 10 µM: DU-145, prostate cancer, one dose 10 μM, read-out: Growth Inhibition Percentage (GI %)
MCF7 = assay: NCI-60 anticancer screening (SRB); assay type: cell-based; details: Homo sapiens; for inhibition at 10 µM: MCF7, breast cancer, one dose 10 μM, read-out: Growth Inhibition Percentage (GI %)
MDA-MB-231 = assay: NCI-60 anticancer screening (SRB); assay type: cell-based; details: Homo sapiens; for inhibition at 10 µM: MDA-MB-231, breast cancer, one dose 10 μM, read-out: Growth Inhibition Percentage (GI %)
HS 578T = assay: NCI-60 anticancer screening (SRB); assay type: cell-based; details: Homo sapiens; for inhibition at 10 µM: HS 578T, breast cancer, one dose 10 μM, read-out: Growth Inhibition Percentage (GI %)
BT-549 = assay: NCI-60 anticancer screening (SRB); assay type: cell-based; details: Homo sapiens; for inhibition at 10 µM: BT-549, breast cancer, one dose 10 μM, read-out: Growth Inhibition Percentage (GI %)
EGFR^T790M = EGFR^T790M (Homo sapiens, UniProt P00533, T790M); assay: biochemical
EGFR^L858R = EGFR^L858R (Homo sapiens, UniProt P00533, L858R); assay: biochemical
EGFR^WT = EGFR^WT (Homo sapiens, UniProt P00533); assay: EGFR kinase inhibitory assay (HTRF)
Sequence of EGFR^WT (P00533 25-1210): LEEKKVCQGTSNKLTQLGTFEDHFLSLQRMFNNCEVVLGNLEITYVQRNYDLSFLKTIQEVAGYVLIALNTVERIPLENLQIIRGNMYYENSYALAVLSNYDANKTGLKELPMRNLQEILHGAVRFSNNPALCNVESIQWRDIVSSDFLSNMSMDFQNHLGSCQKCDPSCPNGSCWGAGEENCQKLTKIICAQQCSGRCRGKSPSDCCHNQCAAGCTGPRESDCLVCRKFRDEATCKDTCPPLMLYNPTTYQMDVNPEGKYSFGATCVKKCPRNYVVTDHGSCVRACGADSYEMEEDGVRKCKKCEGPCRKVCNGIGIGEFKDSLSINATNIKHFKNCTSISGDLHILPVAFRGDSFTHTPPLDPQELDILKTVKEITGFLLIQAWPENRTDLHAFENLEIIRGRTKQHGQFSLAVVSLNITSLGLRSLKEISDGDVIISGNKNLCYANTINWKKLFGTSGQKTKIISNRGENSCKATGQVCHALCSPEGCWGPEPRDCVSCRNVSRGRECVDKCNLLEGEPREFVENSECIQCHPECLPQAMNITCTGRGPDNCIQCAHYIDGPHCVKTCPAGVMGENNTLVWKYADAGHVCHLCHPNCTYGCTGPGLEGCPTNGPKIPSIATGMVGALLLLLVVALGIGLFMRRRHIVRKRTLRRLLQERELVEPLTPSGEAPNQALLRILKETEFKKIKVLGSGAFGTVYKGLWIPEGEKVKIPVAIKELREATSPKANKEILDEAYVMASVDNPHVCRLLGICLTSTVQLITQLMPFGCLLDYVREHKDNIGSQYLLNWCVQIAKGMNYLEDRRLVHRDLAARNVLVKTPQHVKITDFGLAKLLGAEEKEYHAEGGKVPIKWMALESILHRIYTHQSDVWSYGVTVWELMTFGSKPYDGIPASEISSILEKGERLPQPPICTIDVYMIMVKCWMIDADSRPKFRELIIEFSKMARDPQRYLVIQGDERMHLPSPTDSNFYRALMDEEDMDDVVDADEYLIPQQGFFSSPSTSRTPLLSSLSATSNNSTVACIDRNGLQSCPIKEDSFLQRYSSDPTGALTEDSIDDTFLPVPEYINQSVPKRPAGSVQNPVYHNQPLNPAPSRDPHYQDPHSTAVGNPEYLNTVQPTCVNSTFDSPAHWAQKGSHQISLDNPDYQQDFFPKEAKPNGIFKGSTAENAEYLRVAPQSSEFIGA

Sequence of EGFR^L858R (P00533 25-1210 L858R): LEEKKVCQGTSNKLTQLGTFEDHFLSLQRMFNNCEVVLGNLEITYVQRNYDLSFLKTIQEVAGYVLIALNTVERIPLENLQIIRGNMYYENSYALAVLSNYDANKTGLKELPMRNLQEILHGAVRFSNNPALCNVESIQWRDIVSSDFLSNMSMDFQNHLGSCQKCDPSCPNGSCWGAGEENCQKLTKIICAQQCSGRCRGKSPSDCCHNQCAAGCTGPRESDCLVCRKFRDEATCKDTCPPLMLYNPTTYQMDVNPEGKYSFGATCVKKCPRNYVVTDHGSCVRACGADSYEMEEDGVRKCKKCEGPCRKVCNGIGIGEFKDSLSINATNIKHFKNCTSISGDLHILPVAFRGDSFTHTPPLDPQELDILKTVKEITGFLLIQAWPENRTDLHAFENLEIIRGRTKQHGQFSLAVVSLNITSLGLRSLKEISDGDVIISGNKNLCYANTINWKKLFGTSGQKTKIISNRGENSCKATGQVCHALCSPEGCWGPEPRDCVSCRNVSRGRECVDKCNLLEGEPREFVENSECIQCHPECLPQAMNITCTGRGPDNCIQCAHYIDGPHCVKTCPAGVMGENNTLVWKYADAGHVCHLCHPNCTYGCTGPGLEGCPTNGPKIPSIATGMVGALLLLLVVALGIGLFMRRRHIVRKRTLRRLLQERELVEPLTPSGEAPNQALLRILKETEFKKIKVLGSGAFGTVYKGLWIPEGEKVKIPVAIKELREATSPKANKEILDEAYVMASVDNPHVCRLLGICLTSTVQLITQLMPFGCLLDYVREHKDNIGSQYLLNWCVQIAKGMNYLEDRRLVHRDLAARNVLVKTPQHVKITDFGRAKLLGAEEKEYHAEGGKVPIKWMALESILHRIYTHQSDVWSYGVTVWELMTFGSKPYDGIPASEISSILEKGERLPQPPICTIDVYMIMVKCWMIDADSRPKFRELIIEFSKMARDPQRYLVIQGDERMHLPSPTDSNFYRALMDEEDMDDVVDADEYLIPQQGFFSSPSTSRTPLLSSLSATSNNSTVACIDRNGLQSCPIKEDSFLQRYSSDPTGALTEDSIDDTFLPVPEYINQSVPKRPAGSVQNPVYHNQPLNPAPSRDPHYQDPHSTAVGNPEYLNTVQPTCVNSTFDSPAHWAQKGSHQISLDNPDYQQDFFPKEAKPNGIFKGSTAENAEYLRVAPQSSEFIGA
Sequence of EGFR^T790M (P00533 25-1210 T790M): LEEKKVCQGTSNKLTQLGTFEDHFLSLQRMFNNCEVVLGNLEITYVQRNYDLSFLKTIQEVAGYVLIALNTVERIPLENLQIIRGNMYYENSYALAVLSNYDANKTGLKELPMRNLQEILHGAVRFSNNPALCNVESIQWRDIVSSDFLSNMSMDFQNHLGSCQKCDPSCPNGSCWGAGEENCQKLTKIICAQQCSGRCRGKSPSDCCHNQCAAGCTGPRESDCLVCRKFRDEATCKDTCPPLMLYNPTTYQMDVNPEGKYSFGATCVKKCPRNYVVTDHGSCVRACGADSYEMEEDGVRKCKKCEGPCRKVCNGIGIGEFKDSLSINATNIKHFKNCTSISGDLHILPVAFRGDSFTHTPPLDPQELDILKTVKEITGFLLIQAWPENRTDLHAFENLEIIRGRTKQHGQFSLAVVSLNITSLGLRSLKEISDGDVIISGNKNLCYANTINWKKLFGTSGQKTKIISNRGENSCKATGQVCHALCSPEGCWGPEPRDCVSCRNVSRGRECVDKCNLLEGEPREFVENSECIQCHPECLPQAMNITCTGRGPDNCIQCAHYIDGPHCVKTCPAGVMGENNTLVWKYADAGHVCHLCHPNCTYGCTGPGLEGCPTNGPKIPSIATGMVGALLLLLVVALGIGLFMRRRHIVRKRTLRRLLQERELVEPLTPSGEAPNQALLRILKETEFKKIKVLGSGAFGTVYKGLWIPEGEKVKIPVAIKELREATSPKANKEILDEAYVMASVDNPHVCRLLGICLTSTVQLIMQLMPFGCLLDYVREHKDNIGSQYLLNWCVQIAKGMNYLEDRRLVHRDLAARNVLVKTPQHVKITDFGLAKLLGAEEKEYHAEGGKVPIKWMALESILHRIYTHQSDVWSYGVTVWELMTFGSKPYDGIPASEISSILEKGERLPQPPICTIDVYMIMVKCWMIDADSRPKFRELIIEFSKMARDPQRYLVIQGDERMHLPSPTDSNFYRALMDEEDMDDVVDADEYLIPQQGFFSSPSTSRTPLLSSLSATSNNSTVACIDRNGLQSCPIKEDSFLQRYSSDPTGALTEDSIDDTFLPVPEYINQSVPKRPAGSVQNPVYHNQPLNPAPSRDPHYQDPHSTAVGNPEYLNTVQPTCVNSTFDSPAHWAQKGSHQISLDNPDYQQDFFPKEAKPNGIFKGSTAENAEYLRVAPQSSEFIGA

CCOC(=O)C1=C(N)N(c2ccccc2)C2=C(C(=O)CC(C)(C)C2)C1c1ccc(Cl)cc1Cl (racemic) [10c, (±)-Ethyl 2-amino-4–(2,4-dichlorophenyl)-7,7-dimethyl-5-oxo-1-phenyl-1,4,5,6,7,8-hexahydroquinoline-3-carboxylate] was tested, and the GI50 (CCRF-CEM; five doses 0.01-100 µM, 48 h) was 3.1 µM, the inhibition at 10 µM (CCRF-CEM) was 80% and the inhibition at 10 µM (EKVX) was 81%. For the same molecule, the GI50 (EKVX; five doses 0.01-100 µM, 48 h) was 2.62 µM, the inhibition at 10 µM (HOP-92) was 100% and the GI50 (HOP-92; HOP-92, five doses 0.01-100 µM, 48 h) was 3.89 µM. For the same molecule, the inhibition at 10 µM (NCI-H460) was 82%, the GI50 (NCI-H460; NCI-H460, five doses 0.01-100 µM, 48 h) was 1.39 µM and the inhibition at 10 µM (COLO 205) was 91%. The GI50 (COLO 205; COLO-205, five doses 0.01-100 µM, 48 h) was 2.06 µM, the inhibition at 10 µM (HCT-116) was 86% and the GI50 (HCT-116; HCT-116, five doses 0.01-100 µM, 48 h) was 7.89 µM. For the same molecule, the inhibition at 10 µM (HT29) was 65%, the GI50 (HT29; five doses 0.01-100 µM, 48 h) was 1.98 µM and the inhibition at 10 µM (SF-295) was 76%. It also gave a GI50 (SF-295; SF-295, five doses 0.01-100 µM, 48 h) of 2.03 µM, an inhibition at 10 µM (SF-539) of 67% and a GI50 (SF-539; SF-539, five doses 0.01-100 µM, 48 h) of 3.78 µM. It also gave an inhibition at 10 µM (U251) of 72%, a GI50 (U251; U251, five doses 0.01-100 µM, 48 h) of 2.46 µM and a GI50 (MALME-3M; five doses 0.01-100 µM, 48 h) of 2.93 µM. The inhibition at 10 µM (MALME-3M) was 72%, the inhibition at 10 µM (M14) was 59% and the GI50 (M14; M14, five doses 0.01-100 µM, 48 h) was 3.48 µM. It also gave an inhibition at 10 µM (SK-MEL-28) of 49%, a GI50 (SK-MEL-28; SK-MEL-28, five doses 0.01-100 µM, 48 h) of 6.67 µM and an inhibition at 10 µM (UACC-62) of 73%. The GI50 (UACC-62; UACC-62, five doses 0.01-100 µM, 48 h) was 1.26 µM, the inhibition at 10 µM (IGROV1) was 41% and the GI50 (IGROV1; IGROV1, five doses 0.01-100 µM, 48 h) was 7.97 µM. The inhibition at 10 µM (NCI/ADR-RES) was 76%, the inhibition at 10 µM (786-0) was 66% and the GI50 (786-0; 786-0, five doses 0.01-100 µM, 48 h) was 4.24 µM. The inhibition at 10 µM (A498) was 53%, the GI50 (A498; A498, five doses 0.01-100 µM, 48 h) was 4.54 µM and the inhibition at 10 µM (CAKI-1) was 77%. It also gave a GI50 (CAKI-1; CAKI-1, five doses 0.01-100 µM, 48 h) of 6.82 µM, an inhibition at 10 µM (SN 12C) of 79% and a GI50 (SN 12C; SN 12 C, five doses 0.01-100 µM, 48 h) of 3.08 µM. The inhibition at 10 µM (TK-10) was 63%, the GI50 (TK-10; TK-10, five doses 0.01-100 µM, 48 h) was 5.63 µM and the inhibition at 10 µM (UO-31) was 83%. The GI50 (UO-31; UO-31, five doses 0.01-100 µM, 48 h) was 1.15 µM, the inhibition at 10 µM (PC-3) was 90% and the GI50 (PC-3; PC-3, five doses 0.01-100 µM, 48 h) was 4.14 µM. The inhibition at 10 µM (DU-145) was 54%, the GI50 (DU-145; DU-145, five doses 0.01-100 µM, 48 h) was 6.71 µM and the inhibition at 10 µM (MCF7) was 91%. The GI50 (MCF7; MCF7, five doses 0.01-100 µM, 48 h) was 1.77 µM, the inhibition at 10 µM (MDA-MB-231) was 75% and the GI50 (MDA-MB-231; MDA-MB-231, five doses 0.01-100 µM, 48 h) was 3.34 µM. For the same molecule, the inhibition at 10 µM (HS 578T) was less than 10%, the GI50 (HS 578T; HS 578 T, five doses 0.01-100 µM, 48 h) was 7.68 µM and the inhibition at 10 µM (BT-549) was 67%. For the same molecule, the GI50 (BT-549; BT-549, five doses 0.01-100 µM, 48 h) was 4.58 µM, the IC50 (EGFR^T790M) was 0.586 ± 0.003 µM and the IC50 (EGFR^L858R) was 0.623 ± 0.005 µM. It also gave an IC50 (EGFR^WT) of 0.148 ± 0.04 µM.
CCOC(=O)C1=C(N)N(c2ccccc2)C2=C(C(=O)CC(C)(C)C2)C1c1ccccc1Br (racemic) [6d, (±)-Ethyl 2-amino-4–(2-bromophenyl)-7,7-dimethyl-5-oxo-1-phenyl-1,4,5,6,7,8-hexahydroquinoline-3-carboxylate] was tested, and the inhibition at 10 µM (CCRF-CEM) was 20%, the inhibition at 10 µM (EKVX) was 11% and the inhibition at 10 µM (HOP-92) was 27%. The inhibition at 10 µM (NCI-H460) was 20%, the inhibition at 10 µM (COLO 205) was less than 10% and the inhibition at 10 µM (HCT-116) was 21%. For the same molecule, the inhibition at 10 µM (HT29) was 17%, the inhibition at 10 µM (SF-295) was less than 10% and the inhibition at 10 µM (SF-539) was less than 10%. It also gave an inhibition at 10 µM (U251) of less than 10%, an inhibition at 10 µM (MALME-3M) of less than 10% and an inhibition at 10 µM (M14) of 13%. It also gave an inhibition at 10 µM (SK-MEL-28) of less than 10%, an inhibition at 10 µM (UACC-62) of 36% and an inhibition at 10 µM (IGROV1) of less than 10%. For the same molecule, the inhibition at 10 µM (NCI/ADR-RES) was less than 10%, the inhibition at 10 µM (786-0) was 13% and the inhibition at 10 µM (A498) was less than 10%. The inhibition at 10 µM (CAKI-1) was 36%, the inhibition at 10 µM (SN 12C) was less than 10% and the inhibition at 10 µM (TK-10) was less than 10%. The inhibition at 10 µM (UO-31) was 14%, the inhibition at 10 µM (PC-3) was 33% and the inhibition at 10 µM (DU-145) was less than 10%. The inhibition at 10 µM (MCF7) was 33%, the inhibition at 10 µM (MDA-MB-231) was less than 10% and the inhibition at 10 µM (HS 578T) was less than 10%. The inhibition at 10 µM (BT-549) was less than 10%, the IC50 (EGFR^T790M) was 0.41 ± 0.002 µM and the IC50 (EGFR^L858R) was 0.25 ± 0.005 µM. For the same molecule, the IC50 (EGFR^WT) was 0.099 ± 0.02 µM.
